Reference: patent US20050009789A1, “Cyclooxygenase inhibition with nitroxyl” (The Government of the USA as represented by the Secretary …, priority 2003, published 2005)
Several values for one entry are separate records, joined by “and”; a condition that tells them apart may be missing. Identical values can stand only once.

Columns and labels:
COX-2 = target: T1, COX-2 (Ovis aries, UniProt P79208); assay: COX-2 inhibition, prostaglandin (PGF2α) enzyme immunoassay; assay type: biochemical
T1 construct: purchased Cayman Chemical #560101
T1 sequence (P79208 17-603): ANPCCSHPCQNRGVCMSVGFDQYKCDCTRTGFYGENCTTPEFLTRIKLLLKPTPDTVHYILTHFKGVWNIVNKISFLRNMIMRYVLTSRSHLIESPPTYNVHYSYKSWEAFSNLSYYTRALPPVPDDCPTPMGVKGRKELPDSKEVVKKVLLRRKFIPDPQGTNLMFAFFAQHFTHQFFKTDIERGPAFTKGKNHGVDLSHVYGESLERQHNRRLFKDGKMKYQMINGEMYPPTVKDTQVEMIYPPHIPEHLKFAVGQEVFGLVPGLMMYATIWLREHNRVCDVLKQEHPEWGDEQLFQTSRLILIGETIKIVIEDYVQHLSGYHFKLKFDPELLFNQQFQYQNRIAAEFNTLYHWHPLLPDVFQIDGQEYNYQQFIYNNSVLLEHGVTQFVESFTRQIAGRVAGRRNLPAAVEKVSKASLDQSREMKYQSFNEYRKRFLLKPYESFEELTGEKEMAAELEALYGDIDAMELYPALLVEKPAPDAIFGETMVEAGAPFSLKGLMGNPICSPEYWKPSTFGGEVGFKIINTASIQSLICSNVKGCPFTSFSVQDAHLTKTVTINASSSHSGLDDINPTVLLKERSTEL
Source text: (§1) In some cases, screening in the latter method (measuring prostaglandin production) is accomplished using an enzyme immunoassay (EIA) where COX systems include COX-1 or COX-2, an EIA reaction buffer, Heme, and either a control solution, such as NaOH, for control systems or inhibitor solutions of the nitroxyl donor in NaOH having a range of progressively increasing concentrations of the nitroxyl-donating compound. These systems are reacted with arachidonic acid for a period typically of about five to ten minutes. The COX reactions are stopped in each system, for example, by the addition of hydrochloric acid (HCl).
(§2) The relative amounts prostaglandins, such as PGF2α, in each system are measured with an EIA kit. The EIA measures the amounts of prostaglandins in the systems based on binding to an assay antibody. Binding is determined by absorbance, for example, absorbance at 405 nm, with a plate reader, such as a Perkin Elmer plate reader. High binding results in low absorbance indicating low inhibition, while low binding results in high absorbance indicating high inhibition.
(§3) Once the inhibitor and control systems are prepared they are diluted in the EIA buffer at various dilution ratios, such as 1:1000, 1:2000, and 1:4000 and added to wells of the plate. The plate also contains prostaglandin (PG) standard systems, non-specific binding (NSB) systems, background COX systems, and zero binding (B0) systems, which are used to calibrate the EIA. PG standard systems are prepared at various progressively increasing concentrations of PG, for example 15.6, 31.3, 62.5, 125, 250, 500, 1000, and 2000 PG/mL. Background COX systems contain either boiled COX-1 or COX-2 diluted in EIA reaction buffer. NSB, and B0 systems include only the EIA buffer. Prostaglandin screening acetylcholinase tracer (reconstituted in the EIA buffer) is added to each system. Prostaglandin screening antiserum (reconstituted in the EIA buffer) is added to each system other than the NSB system. Typically, the plate is incubated from several hours to a day, such as from 4 to 24 hours at room temperature (about 22° C.). Ellman's reagent is added to each system in each well and the plate is agitated, such as on an orbital shaker, and protected from light, for example by covering with aluminum foil, for about an hour. The plate is then read on a plate reader, such as a Perkin Elmer plate reader.
(§4) An average value for the absorbance of the NSB systems is determined and this absorbance is used to correct the reading of other systems for NSB (by subtracting the average NSB absorbance). An average value for the absorbance of background COX also is determined and absorbance is later used to correct other systems for background COX levels.
(§5) An average value for B0 is obtained and NSB corrected. Average values for absorbance of each PG standard system are obtained and NSB corrected. The percentage of prostanoid binding is determined by dividing the average NSB corrected absorbance (binding (B)) for each PG standard system by the average NSB corrected absorbance for B0 systems (percentage equals B/B0*100). A standard curve is prepared with % B/B0 on the y axis and the prostaglandin concentration (PG/mL) on the x axis. Then the average % B/B0 for the background, control, and inhibitor systems are determined for each concentration tested. The PG concentration for each of these systems is determined by finding the point on the standard curve that corresponds to the determined % B/B0, determining the corresponding PG concentration on the x axis, and multiplying this concentration by the dilution factor used to prepare the system. To correct for background COX the PG concentration of the background COX-1 or COX-2 systems are subtracted from the COX-1 and COX-2 inhibitor and control systems, respectively. The percentage of inhibition is determined dividing the PG concentration for inhibitor systems by the PG concentration for control systems and multiplying by 100. […]

Nitroxyl donation pH = assay type: physicochemical
Source text: “Nitroxyl donation pH” is the pH at which and above which a nitroxyl-donating compounds donates nitroxyl.
Further, compounds are easily tested for nitroxyl donation with routine experiments. Although it is impractical to directly measure whether nitroxyl is donated, several tests are accepted for determining whether a compound donates nitroxyl. For example, the compound of interest can be placed in solution, for example in water, in a sealed container. After sufficient time for disassociation has elapsed, such as from several minutes to several hours, the headspace gas is withdrawn and analyzed to determine its composition, such as by gas chromatography and/or mass spectroscopy. […] Nitroxyl donation also can be detected by exposing the target donor to metmyoglobin (Mb^3+). Nitroxyl reacts with Mb^3+ to form an Mb^2+—NO complex, which can be detected by changes in the ultraviolet/visible spectrum or by Electron Paramagnetic Resonance (EPR). […]
Testing for nitroxyl donation in some cases is performed at a range of pHs to determine the nitroxyl donation pH of the nitroxyl-donating compound. […] After the lowest pH at which nitroxyl donation occurs in a first set of tests is found, additional tests can be performed with narrower ranges of pH around the first determined nitroxyl donation pH to obtain a more specific nitroxyl donation pH. […]

COX-1 = target: T2, COX-1 (Ovis aries, UniProt P05979); assay: COX-1 inhibition, prostaglandin (PGF2α) enzyme immunoassay; assay type: biochemical
T2 construct: purchased Cayman Chemical #560101
T2 sequence (P05979 25-600): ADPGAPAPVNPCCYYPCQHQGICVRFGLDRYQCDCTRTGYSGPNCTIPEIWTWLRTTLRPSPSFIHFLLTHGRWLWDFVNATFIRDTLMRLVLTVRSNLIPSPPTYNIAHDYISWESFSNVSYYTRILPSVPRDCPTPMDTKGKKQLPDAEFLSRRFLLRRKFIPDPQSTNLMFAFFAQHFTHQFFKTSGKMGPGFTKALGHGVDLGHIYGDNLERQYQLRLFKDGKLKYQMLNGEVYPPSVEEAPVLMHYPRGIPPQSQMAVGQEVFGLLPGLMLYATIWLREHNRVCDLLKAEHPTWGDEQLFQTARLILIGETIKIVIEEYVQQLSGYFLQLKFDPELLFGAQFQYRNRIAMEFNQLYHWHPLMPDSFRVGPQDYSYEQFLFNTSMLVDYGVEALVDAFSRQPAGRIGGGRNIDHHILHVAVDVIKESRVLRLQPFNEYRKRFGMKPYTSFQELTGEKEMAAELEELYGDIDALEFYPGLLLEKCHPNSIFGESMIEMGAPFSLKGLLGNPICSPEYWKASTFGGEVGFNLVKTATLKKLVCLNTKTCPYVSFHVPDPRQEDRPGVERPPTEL
Source text: as §1, §2, §3, §4, §5

[1] = Example 3, nitroxyl donor concentration 25 μM
[2] = Example 3, nitroxyl donor concentration 50 μM
[3] = Example 3, nitroxyl donor concentration 75 μM
[4] = Example 3, nitroxyl donor concentration 100 μM
[5] = Example 3, nitroxyl donor concentration 1000 μM
[6] = Example 1, Angeli's salt concentration 0.001 μM, 1:2000 dilution
[7] = Example 1, Angeli's salt concentration 1.0 μM, 1:2000 dilution
[8] = Example 1, Angeli's salt concentration 10.0 μM, 1:2000 dilution
[9] = Example 1, Angeli's salt concentration 500.0 μM, 1:2000 dilution
[10] = Example 2, Angeli's salt concentration 0.100 μM, data below about 50 μM called unreliable
[11] = Example 2, Angeli's salt concentration 100.0 μM
[12] = Example 2, Angeli's salt concentration 500.0 μM
[13] = Example 2, Angeli's salt concentration 1000.0 μM

Compound: CC(C)N[N+]([O-])=N[O-].[Na+] [IPA/NO, Na(CH3)2C(H)N(H)N(O)NO]
- COX-2 inhibition, overall trend compared to Angeli's salt (COX-2; Example 3, 25 to 1000 μM): more effective inhibitor of COX-2 than Angeli's salt
- Percentage COX-2 inhibition (COX-2; [1]): 6.7%
- Percentage COX-2 inhibition (COX-2; [2]): 59.5%
- Percentage COX-2 inhibition (COX-2; [3]): 46.4%
- Percentage COX-2 inhibition (COX-2; [4]): 62.2%
- Percentage COX-2 inhibition (COX-2; [5]): 86.8%
- nitroxyl donation pH (pH at which and above which nitroxyl is donated) (Nitroxyl donation pH): about 5.5

Compound: [Na+].[Na+].[O-][N+]([O-])=NO [Angeli's salt, Na2ON(O)NO]
- IC50 (COX-1; Example 1, read from FIG. 1): ~600 µM
- Percentage COX-1 Inhibition (COX-1; [6]): 0.0%
- Percentage COX-1 Inhibition (COX-1; [7]): 0.0%
- Percentage COX-1 Inhibition (COX-1; [8]): 0.0%
- Percentage COX-1 Inhibition (COX-1; Example 1, Angeli's salt concentration 100.0 μM, 1:2000 dilution): 18.3%
- Percentage COX-1 Inhibition (COX-1; [9]): 40.2%
- Percentage COX-1 Inhibition (COX-1; Example 1, Angeli's salt concentration 1000.0 μM, 1:2000 dilution): 95.4%
- COX-1 activity inhibited (COX-1; Example 1, concentrations from about 50 μM to about 100 μM): ≤ 19%
- IC50 (COX-1; Example 2, reasonable estimate): 200 to 250 µM
- Percentage COX-1 Inhibition (COX-1; Example 2, Angeli's salt concentration 0.001 μM, data below about 50 μM called unreliable): 97.5%
- Percentage COX-1 Inhibition (COX-1; [10]): 24.7%
- Percentage COX-1 Inhibition (COX-1; Example 2, Angeli's salt concentration 1.0 μM, data below about 50 μM called unreliable): 57.5%
- Percentage COX-1 Inhibition (COX-1; Example 2, Angeli's salt concentration 50.0 μM): 16.4%
- Percentage COX-1 Inhibition (COX-1; [11]): 45.7%
- Percentage COX-1 Inhibition (COX-1; [12]): 62.5%
- Percentage COX-1 Inhibition (COX-1; [13]): 68.6%
- COX-1/COX-2 IC50 ratio (COX-2; Example 1): about 0.08
- IC50 (COX-2; Example 1, read from FIG. 1): ~50 µM
- Percentage COX-2 inhibition (COX-2; [6]): 0.0%
- Percentage COX-2 inhibition (COX-2; [7]): 34.6%
- Percentage COX-2 inhibition (COX-2; [8]): 28.8%
- Percentage COX-2 inhibition (COX-2; Example 1, Angeli's salt concentration 100.0 μM, 1:2000 dilution, 100 µM): 100% and 99.2%
- Percentage COX-2 inhibition (COX-2; [9]): 86.4%
- IC50 (COX-2; Example 2, reasonable estimate): ~50 µM
- Percentage COX-2 inhibition (COX-2; [10]): 98.9%
- Percentage COX-2 inhibition (COX-2; [11]): 98%
- Percentage COX-2 inhibition (COX-2; [12]): 105.7%
- Percentage COX-2 inhibition (COX-2; [13]): 106%
- Percentage COX-2 inhibition (COX-2; [1]): 5.4%
- Percentage COX-2 inhibition (COX-2; [2]): 13.7%
- Percentage COX-2 inhibition (COX-2; [3]): 49.2%
- Percentage COX-2 inhibition (COX-2; [4]): 59.9%
- Percentage COX-2 inhibition (COX-2; [5]): 60.4%
- COX-2/COX-1 IC50 ratio (COX-2; one particular example (detailed description)): about 0.08
- nitroxyl donation pH (pH at which and above which nitroxyl is donated) (Nitroxyl donation pH): about 3
